In the test the test system is Swiss mice, Sarcoma 180 sc, mean tumor weight T/C. The experiment in a line: NCI In Vivo Anticancer Drug Screen. Data for tumor model Sarcoma 180 (subcutaneous) in Swiss mice. The conditions noted are these: endpoint: mean tumor weight, higher = larger tumour. The method, boiled down:
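Tumor-bearing mice, transplantable tumor; readout survival or tumor size; result = T/C, treated vs vehicle control.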

Setting [1] is: dose: 110.0 mg/kg/injection, schedule: Q01DX007 (ip), vehicle: carboxymethylcellulose (CMC).
Where [2] appears, read: dose: 250.0 mg/kg/injection, schedule: Q01DX007 (ip), vehicle: carboxymethylcellulose (CMC).

“And” between values parts separate entries of the source, which are not always exact repeats. Equal values may be shown once.

For `CN(CC#N)/N=N/c1nc[nH]c1C(N)=O`, the T/C (dose: 225.0 mg/kg/injection, schedule: Q01DX007 (ip), vehicle: carboxymethylcellulose (CMC)) is 38 % of control.

In the case of `COc1ccccc1NC(=O)CSC(N)=O`, the T/C is 78 % of control under setting [1]; 74 % of control (dose: 165.0 mg/kg/injection, schedule: Q01DX007 (ip), vehicle: carboxymethylcellulose (CMC)); 61 % of control under setting [2]; 28 % of control (dose: 375.0 mg/kg/injection, schedule: Q01DX007 (ip), vehicle: carboxymethylcellulose (CMC)).

On to `COC(=O)c1ccccc1NC(c1ccccn1)c1ccc2cccnc2c1O` (stereo not drawn), for which the T/C is, setting by setting: (dose: 62.0 mg/kg/injection, schedule: Q01DX007 (ip), vehicle: carboxymethylcellulose (CMC)) 115 % of control; (dose: 125.0 mg/kg/injection, schedule: Q01DX007 (ip), vehicle: carboxymethylcellulose (CMC)) 104 % of control; under setting [2], 88 % of control; (dose: 500.0 mg/kg/injection, schedule: Q01DX007 (ip), vehicle: carboxymethylcellulose (CMC)) 88 % of control.

For `O=C(O)c1cccc2c3c(cc([N+](=O)[O-])c12)CCCC3`, the T/C (dose: 1.5 mg/kg/injection, schedule: Q01DX007 (ip), vehicle: carboxymethylcellulose (CMC)) is 157 % of control.

For the compound `COc1ccc(CSc2ncnc3nc[nH]c23)cc1`, the T/C is, setting by setting: (dose: 55.5 mg/kg/injection, schedule: Q#A X014 (ip), vehicle: methylcellulose (MC)) 48 % of control; (dose: 83.0 mg/kg/injection, schedule: Q#A X014 (ip), vehicle: methylcellulose (MC)) 29 % of control; (dose: 125.0 mg/kg/injection, schedule: Q#A X014 (ip), vehicle: methylcellulose (MC)) 14 % of control; (dose: 187.5 mg/kg/injection, schedule: Q#A X014 (ip), vehicle: methylcellulose (MC)) 10 % of control.

As for `CCCCn1cnc2c(SSc3ncnc4c3ncn4CCCC)ncnc21`, the T/C is 82 % of control (dose: 53.0 mg/kg/injection, schedule: Q01DX007 (ip), vehicle: carboxymethylcellulose (CMC)); 62 % of control (dose: 53.0 mg/kg/injection, schedule: Q01DX007 (ip), vehicle: other); 65 % of control (dose: 83.0 mg/kg/injection, schedule: Q01DX007 (ip), vehicle: other); 71 % of control (dose: 83.0 mg/kg/injection, schedule: Q01DX007 (ip), vehicle: saline); 50 % of control (dose: 125.0 mg/kg/injection, schedule: Q01DX007 (ip), vehicle: other); 37 % of control (dose: 125.0 mg/kg/injection, schedule: Q01DX007 (ip), vehicle: saline). For the same compound, the T/C (dose: 187.0 mg/kg/injection, schedule: Q01DX007 (ip), vehicle: other) was 30 % of control.

Regarding `CCN(CC)P(=S)(N1CC1)N1CC1`, the T/C was 3 % of control (dose: 25.0 mg/kg/injection, schedule: Q01DX007 (ip), vehicle: other); 31 % of control (dose: 50.0 mg/kg/injection, schedule: Q01DX007 (ip), vehicle: other); 1 % of control (dose: 100.0 mg/kg/injection, schedule: Q01DX007 (ip), vehicle: other); 25 % of control (dose: 220.0 mg/kg/injection, schedule: Q01DX007 (ip), vehicle: saline).

As to `CO[C@H]1C[C@H](O[C@H]2CC[C@]3(C=O)[C@H]4CC[C@]5(C)[C@@H](C6=CC(=O)OC6)CC[C@]5(O)[C@@H]4CC[C@]3(O)C2)O[C@H](C)[C@H]1O`, the T/C (dose: 2.5 mg/kg/injection, schedule: Q01DX007 (sc), vehicle: saline) is 86 % of control and the T/C (dose: 5.0 mg/kg/injection, schedule: Q01DX007 (sc), vehicle: saline) was 62 % of control.

As to `Cc1ncc(CO)c(C)c1O`, the T/C was 102 % of control (dose: 25.25 mg/kg/injection, schedule: Q01DX007 (ip), vehicle: carboxymethylcellulose (CMC)); 77 % of control (dose: 27.5 mg/kg/injection, schedule: Q01DX007 (ip), vehicle: carboxymethylcellulose (CMC)); 102 % of control (dose: 50.5 mg/kg/injection, schedule: Q01DX007 (ip), vehicle: carboxymethylcellulose (CMC)); 54 % of control (dose: 55.0 mg/kg/injection, schedule: Q01DX007 (ip), vehicle: carboxymethylcellulose (CMC)); 84 % of control (dose: 101.0 mg/kg/injection, schedule: Q01DX007 (ip), vehicle: carboxymethylcellulose (CMC)); 53 % of control under setting [1]. Further, the T/C (dose: 202.0 mg/kg/injection, schedule: Q01DX007 (ip), vehicle: carboxymethylcellulose (CMC)) was 71 % of control.

As to `CO/[N+]([O-])=C\C(=O)N/C=C/C(=O)O`, the T/C (dose: 50.0 mg/kg/injection, schedule: Q01DX007 (ip), vehicle: carboxymethylcellulose (CMC)) was 79 % of control.

Turning to `CN=C(N)/N=C(\N)Nc1cc2ccccc2c2ccccc12`, the T/C by setting is: (dose: 1.0 mg/kg/injection, schedule: Q01DX007 (ip), vehicle: acid diluted with saline) 89 % of control; (dose: 2.0 mg/kg/injection, schedule: Q01DX007 (ip), vehicle: acid diluted with saline) 93 % of control; (dose: 4.0 mg/kg/injection, schedule: Q01DX007 (ip), vehicle: acid diluted with saline) 92 % of control.

Take `CN(C)c1ccc(C(C#N)C(C#N)c2ccccc2)cc1` (stereo not drawn): the T/C (dose: 8.85 mg/kg/injection, schedule: Q#A X014 (ip), vehicle: methylcellulose (MC)) was 69 % of control and 84 % of control; the T/C (dose: 26.6 mg/kg/injection, schedule: Q#A X014 (ip), vehicle: methylcellulose (MC)) was 4 % of control; the T/C (dose: 40.0 mg/kg/injection, schedule: Q#A X014 (ip), vehicle: methylcellulose (MC)) was 56 % of control.

In the case of `C#C[C@]1(OC(C)=O)CC[C@H]2[C@@H]3CC[C@H]4CC=CC[C@]4(C)[C@H]3CC[C@@]21C`, the T/C was 84 % of control (dose: 2.5 mg/kg/injection, schedule: Q01DX007 (sc), vehicle: steriod suspending solution); 71 % of control (dose: 5.0 mg/kg/injection, schedule: Q01DX007 (sc), vehicle: steriod suspending solution); 102 % of control (dose: 10.0 mg/kg/injection, schedule: Q01DX007 (sc), vehicle: steriod suspending solution).

In the case of `C[C@]12C=CC(=O)C=C1CC[C@@H]1[C@@H]2[C@@H](O)C[C@@]2(C)[C@H]1CC[C@]2(O)C(=O)COC(=O)C1CCCC1`, the T/C runs as follows: (dose: 3.5 mg/kg/injection, schedule: Q#A X014 (sc), vehicle: water) 68 % of control; (dose: 5.0 mg/kg/injection, schedule: Q#A X014 (sc), vehicle: water) 35 % of control; (dose: 7.5 mg/kg/injection, schedule: Q#A X014 (sc), vehicle: water) 49 % of control; (dose: 11.5 mg/kg/injection, schedule: Q#A X014 (sc), vehicle: water) 47 % of control; (dose: 17.5 mg/kg/injection, schedule: Q#A X014 (sc), vehicle: water) 32 % of control.

`C[C@]12C=CC(=O)C=C1CC[C@@H]1[C@@H]2CC[C@]2(C)OC(=O)CC[C@@H]12`: the T/C (dose: 250.0 mg/kg/injection, schedule: Q01DX007 (sc), vehicle: steriod suspending solution) is 74 % of control and 99 % of control; the T/C (dose: 500.0 mg/kg/injection, schedule: Q01DX007 (sc), vehicle: steriod suspending solution) is 83 % of control and 105 % of control.

`Cc1cc(N=C2C=CC(=O)C=C2)c(C(C)C)cc1O`: the T/C is 52 % of control (dose: 200.0 mg/kg/injection, schedule: Q01DX007 (ip), vehicle: other); 61 % of control (dose: 300.0 mg/kg/injection, schedule: Q01DX007 (ip), vehicle: other); 59 % of control (dose: 450.0 mg/kg/injection, schedule: Q01DX007 (ip), vehicle: other); 53 % of control (dose: 600.0 mg/kg/injection, schedule: Q01DX007 (ip), vehicle: other).

For `Nc1nc(SCc2ccccn2)c2ncn(C3OC(CO)C(O)C3O)c2n1` (stereo not drawn), the T/C runs as follows: (dose: 11.1 mg/kg/injection, schedule: Q#A X014 (ip), vehicle: methylcellulose (MC)) 52 % of control; (dose: 16.65 mg/kg/injection, schedule: Q#A X014 (ip), vehicle: methylcellulose (MC)) 48 % of control; (dose: 25.0 mg/kg/injection, schedule: Q#A X014 (ip), vehicle: methylcellulose (MC)) 37 % of control; (dose: 37.5 mg/kg/injection, schedule: Q#A X014 (ip), vehicle: methylcellulose (MC)) 41 % of control.

`CC(C)=CCC/C(C)=C/CO`: the T/C (dose: 7.8 mg/kg/injection, schedule: Q01DX007 (ip), vehicle: saline) is 83 % of control; the T/C (dose: 15.6 mg/kg/injection, schedule: Q01DX007 (ip), vehicle: saline) is 83 % of control; the T/C (dose: 31.3 mg/kg/injection, schedule: Q01DX007 (ip), vehicle: saline) is 110 % of control; the T/C (dose: 62.5 mg/kg/injection, schedule: Q01DX007 (ip), vehicle: saline) was 90 % of control.

For the origin of these results see PubChem BioAssay AID342 (DTP/NCI, 2004).
